Measurements published in PMC10491836, “Structural dynamics influences the antibacterial activity of a cell-penetrating peptide (KFF)3K” (Scientific Reports, 2023).
In brackets after ≈: the same amount, converted by molar mass. Read-outs that look alike come from different tables or passages of the source. Positions of bridges follow the written chain, without caps; N, C: chain ends. Non-standard residues stand in square brackets, D forms with d. Residues, ends and D or L forms follow the SMILES beside them. No end group written: not given here. S5 = C=CCCC[C@](C)(N)C(=O)O

Key:
E. coli 1841-06 [1] = type: cell-based
Experimental: (§1) The minimal inhibitory concentration (MIC) values were determined as follows. Bacteria were first cultured overnight in 2 mL of Lysogeny Broth (LB, VWR Chemicals) at 37 °C with shaking. Second, 20 µL of overnight culture was transferred into 2 mL of MHB medium and further cultured at 37 °C with shaking until the culture reached OD600 of 0.3. Third, the culture was diluted 1:100 in a fresh MHB medium and aliquots of 50 µL were mixed with 50 µL of the previously prepared dilutions of the tested compound in MHB on a transparent flat-bottom 96-well plate (Nest). The plate was then sealed with transparent foil (Titer-Tops) and incubated for 20 h, at 37 °C with shaking. Following incubation, OD at 600 nm was measured using the Tecan Sunrise plate reader. Growth inhibition was determined by comparing the given sample with untreated culture (Growth Control—GC) with MHB alone (Sterility Control—SC) as an additional reference. The experiment was performed in at least two biological replicates of two technical replicates each. Statistical significance was determined by a Two-way ANOVA test using GraphPad Prism 9.

E. coli O157:H7 ST2-8624 [2] = type: cell-based; conditions: MHB, 20 h, 37 °C, OD600; at least two biological replicates of two technical replicates; tested up to 32 µM
Experimental: as §1

[3] = system: Ps. aeruginosa ATCC 27853; type: cell-based
Experimental: as §1

S. aureus ATCC 29213 [4] = type: cell-based
Experimental: as §1

[5] = system: S. aureus ATCC BAA1720 MRSA; type: cell-based; conditions: MHB, 20 h, 37 °C, OD600; methicillin-resistant strain; tested up to 32 µM
Experimental: as §1

E. coli K12 [6] = assay: Antibacterial activity determination, MIC; type: cell-based; conditions: MHB, 20 h, 37 °C, OD600; reference non-pathogenic strain; tested up to 32 µM
Experimental: as §1

E. coli 1841-06 [7] = type: cell-based; remark: listed apart in the source
Experimental: (§2) The minimal bactericidal concentration (MBC) values were determined, by diluting wells from the MIC experiment plate in fresh MHB medium. Dilutions of 10, 100, and 1000 times were prepared for the MIC well and up to two higher than MIC concentrations of the tested compound. Dilutions were made on a transparent flat-bottom 96-well plate (Nest) that was next sealed and incubated for 24 h, at 37 °C with shaking. Growth in a given sample well was compared with GC and SC controls.

E. coli K12 [8] = type: cell-based
Experimental: as §2

E. coli O157:H7 ST2-8624 [9] = type: cell-based; conditions: wells of MIC plate diluted 10, 100, 1000 times in MHB, 24 h, 37 °C
Experimental: as §2

[10] = system: Ps. aeruginosa ATCC 27853; type: cell-based; remark: listed apart in the source
Experimental: as §2

S. aureus ATCC 29213 [11] = type: cell-based; remark: listed apart in the source
Experimental: as §2

[12] = system: S. aureus ATCC BAA1720 MRSA; type: cell-based
Experimental: as §2

[13] = system: various Gram-positive and Gram-negative strains; assay: MIC over the panel of strains (summary statements); type: cell-based
Experimental: as §1

α-chymotrypsin = system: T1, α-chymotrypsin; assay: in vitro; type: in vitro ADME, bovine; conditions: isolated enzyme chymotrypsin, pH 8
T1 construct: α-chymotrypsin from bovine pancreas; from tissue; host or cells: bovine pancreas
Experimental: (§3) The proteolytic stability of peptides was analyzed against α-chymotrypsin from bovine pancreas (3.4.21.1, ≥ 40 units/mg protein). Peptide solutions (340 µL) in ammonium bicarbonate buffer (0.1 M NH4HCO3, pH 8.0) were incubated with the appropriate amount of chymotrypsin at 37 °C with rapid shaking (600 rpm). Chymotrypsin and peptides were mixed in the 1:1333 ratio[47],[71]. Digestion mixture (60 µL) was taken at 4, 8, 12, 16, and 20 min and treated with 3 µL of 50% acetonitrile containing 1% TFA to stop the reaction and immediately store in ice. Peptide degradation was analyzed with RP-HPLC using the analytical method from 15 to 75% of acetonitrile in 30 min. Before the injection, the sample was diluted by adding 57 µL of ammonium bicarbonate buffer. 100 µL of the solution taken in each period was injected. The stabilities were quantified as the percentage of the peptide peak of area degradation. The total area of each peak was determined for experiments without chymotrypsin. Each experiment was performed twice on different days.

[14] = molecular target: T2, α-chymotrypsin from bovine pancreas (Bos taurus, UniProt P00766); assay: in vitro; type: in vitro ADME; conditions: pH 8
T2 construct: α-chymotrypsin from bovine pancreas; from tissue; host or cells: bovine pancreas
Experimental: as §3

[15] = system: Gram-positive and Gram-negative strains; conditions: both Gram-positive and Gram-negative strains; cited from earlier work
Description: Furthermore, a single-point mutation of a peptide sequence can change its solely cell-penetrating ability into antimicrobial activity, or vice versa. It was shown that the incorporation of hydrophobic or cationic residues changed the character of a CPP into a more antibacterial one.

[16] = MHB, 20 h, 37 °C, OD600, tested up to 32 µM
[17] = wells of MIC plate diluted 10, 100, 1000 times in MHB, 24 h, 37 °C

Molecule | MIC (E. coli 1841-06 [1]; 1841-06, 20 h) | MIC (E. coli O157:H7 ST2-8624 [2]) | MIC ([3]; ATCC 27853, 20 h) | MIC (S. aureus ATCC 29213 [4]; ATCC 29213, 20 h) | MIC [5] | MIC (E. coli K12 [6]) | MBC (E. coli 1841-06 [7]; 1841-06, 24 h) | MBC (E. coli K12 [8]; K12, 24 h) | MBC (E. coli O157:H7 ST2-8624 [9]) | MBC ([10]; ATCC 27853, 24 h) | MBC (S. aureus ATCC 29213 [11]; ATCC 29213, 24 h) | MBC ([12]; ATCC BAA1720, 24 h) | other results
KFFKFFKFFK-NH2 [(KFF)3K] | > 32 µM | 32 µM | 32 µM | > 32 µM | > 32 µM | 32 µM | > 32 µM | 32 µM | ≥ 32 µM | ≥ 32 µM | > 32 µM | > 32 µM | MIC ([13]; all Gram-positive and Gram-negative strains tested): > 32 µM; metabolised at 20 min (α-chymotrypsin): 70%
C[C@@]1(C(=O)N[C@@H](CCCCN)C(N)=O)CCCC=CCCC[C@](C)(NC(=O)[C@H](CCCCN)NC(=O)[C@H](Cc2ccccc2)NC(=O)[C@H](Cc2ccccc2)NC(=O)[C@@H](N)CCCCN)C(=O)N[C@@H](Cc2ccccc2)C(=O)N[C@@H](CCCCN)C(=O)N[C@@H](Cc2ccccc2)C(=O)N1 [(KFF)3K[5–9]] (H-KFFK[S5]FKF[S5]K-NH2; staple 5-9) | 4 µM (≈ 5.48 µg/mL) | 8 µM (≈ 11 µg/mL) | 4 µM (≈ 5.48 µg/mL) | 8 to 16 µM | 16 µM (≈ 21.9 µg/mL) | 2 µM (≈ 2.74 µg/mL) | 8 µM (≈ 11 µg/mL) | 2 µM (≈ 2.74 µg/mL) | 8 µM (≈ 11 µg/mL) | 4 µM (≈ 5.48 µg/mL) | 16 µM (≈ 21.9 µg/mL) | 32 µM (≈ 43.8 µg/mL) | peptide remained undigested after incubation in chymotrypsin solution [14]: 90%
C[C@@]1(C(=O)N[C@@H](CCCCN)C(=O)N[C@@H](Cc2ccccc2)C(=O)N[C@@H](Cc2ccccc2)C(=O)N[C@@H](CCCCN)C(N)=O)CCCC=CCCC[C@](C)(NC(=O)[C@@H](N)CCCCN)C(=O)N[C@@H](Cc2ccccc2)C(=O)N[C@@H](CCCCN)C(=O)N[C@@H](Cc2ccccc2)C(=O)N1 [(KFF)3K[2–6]] (H-K[S5]FKF[S5]KFFK-NH2; staple 2-6) | 4 µM (≈ 5.48 µg/mL) | 4 µM (≈ 5.48 µg/mL) | 4 to 8 µM | 16 µM (≈ 21.9 µg/mL) | 8 µM (≈ 11 µg/mL) | 2 µM (≈ 2.74 µg/mL) | 4 µM (≈ 5.48 µg/mL) | 2 µM (≈ 2.74 µg/mL) | 4 µM (≈ 5.48 µg/mL) | 8 µM (≈ 11 µg/mL) | 16 to 32 µM | 16 to 32 µM | –
KETWWETWWTEWSQPKKKRKV [Pep-1, amphipathic cell-penetrating peptide quoted from the literature] | – | – | – | – | – | – | – | – | – | – | – | – | MIC [15]: 32 to 64 µM
polymyxin B | – | 0.5 to 1 µM | – | – | > 32 µM | 0.125 µM | – | – | 0.5 to 1 µM | – | – | – | MIC (E. coli 1841-06 [1]; MHB, 20 h, 37 °C, OD600, β-lactam resistant strain, tested up to 32 µM): 1 µM; MIC [3, 16]: 1 µM; MIC (S. aureus ATCC 29213 [4]; [16]): > 32 µM; MBC (E. coli 1841-06 [7]; [17]): 1 µM; MBC (E. coli K12 [8]; [17]): 0.125 µM; MBC [10, 17]: 1 µM; MBC (S. aureus ATCC 29213 [11]; [17]): > 32 µM; MBC [12, 17]: > 32 µM; antibacterial activity ([13]; Gram-positive strains, tested up to 32 µM): not active
